Results: patent US20120202801A1, “METHODS FOR TREATING BREAST CANCER” (priority 2009, published 2012)

Assays:
[1] = test system: HT1080 cells; test: Cell cycle analysis by propidium iodide flow cytometry in HT1080 cells (% cells in S-phase); type: cell-based, human; conditions: HT1080 cells, 100 nM, 18 hours, normoxic; DMSO control 17.3
Procedure: Experimental Design. […] After treatment, cells were trypsinized, and stained with propidium iodide (PI) dye to measure DNA content of individual cells by flow cytometry. Output comprised histograms showing relative DNA content in 10,000 cells.
While compounds which cause greater than 20% of the cells to accumulate in S-phase at 100 nM are considered active, a larger percentage of cells may be accumulated in S-phase at lower doses depending on the Compound, as shown in FIG. 12 for example.

[2] = test system: hypoxia-inducible endogenous VEGF expression; test: Hypoxia-inducible endogenous VEGF expression ELISA in HeLa cells, dose-response (EC50, Table 3); conditions: Homo sapiens, read-out: ELISA EC50 μM

Q: Which “% Cells In S-Phase” value [1] does the source give for `O=C(Oc1ccc(Cl)cc1)N1CCc2c([nH]c3ccc(Cl)cc23)C1c1ccc(OCCN2CCCCC2)cc1` (stereo not drawn) here?
A: Its value is 16.8%.

Q: For `CN1CCN(CC(O)COc2ccc(C3c4[nH]c5ccc(Cl)cc5c4CCN3C(=O)Oc3ccc(F)cc3)cc2)CC1` (stereo not drawn) [Compound 963], which EC50 [2] is on record?
A: The EC50 was 0.008 to 0.04 µM.

Q: For `COCCN(C)CC(O)COc1ccc(C2c3[nH]c4ccc(Cl)cc4c3CCN2C(=O)Oc2ccc(Cl)cc2)cc1` (stereo not drawn) [Compound 964], which EC50 [2] is on record?
A: The EC50 was 0.008 to 0.04 µM.

Q: Which EC50 [2] does the source give for `CN1CCCC(COc2ccc(C3c4[nH]c5ccc(Cl)cc5c4CCN3C(=O)Oc3ccc(Cl)cc3)cc2)C1` (stereo not drawn) [Compound 966] here?
A: Its EC50 is 0.008 to 0.04 µM.

Q: How did the EC50 [2] turn out when `CN1CCN(CC(O)COc2ccc(C3c4[nH]c5ccc(Cl)cc5c4CCN3C(=O)Oc3ccc(Cl)cc3)cc2)CC1` (stereo not drawn) [Compound 970] was run?
A: Its EC50 is 0.008 to 0.04 µM.

Q: With `CN1CCCC(COc2ccc(C3c4[nH]c5ccc(Cl)cc5c4CCN3C(=O)Oc3ccccc3Cl)cc2)C1` (stereo not drawn) [Compound 976] as the compound, how does the EC50 [2] read?
A: Its EC50 is 0.04 to 0.2 µM.

Q: With `CC(C)NCC(O)COc1ccc(C2c3[nH]c4ccc(Cl)cc4c3CCN2C(=O)Oc2ccc(Cl)cc2)cc1` (stereo not drawn) [Compound 977] as the compound, how does the EC50 [2] read?
A: The EC50 was 0.04 to 0.2 µM.

Q: How did the EC50 [2] turn out when `COc1ccc(OC(=O)N2CCc3c([nH]c4ccc(Cl)cc34)C2c2ccc(OCC3CCCN(C)C3)cc2)cc1` (stereo not drawn) [Compound 981] was run?
A: The EC50 was 0.04 to 0.2 µM.

Q: With `CC(=O)N1CCN(CCCOc2ccc(C3c4[nH]c5ccc(Cl)cc5c4CCN3C(=O)Oc3ccc(F)cc3)cc2)CC1` (stereo not drawn) [Compound 988] as the compound, how does the EC50 [2] read?
A: The EC50 was < 0.008 µM.

Q: With `O=C(Oc1ccc(F)cc1)N1CCc2c([nH]c3ccc(Cl)cc23)C1c1ccc(OCCCN2CCOCC2)cc1` (stereo not drawn) [Compound 989] as the compound, how does the EC50 [2] read?
A: The EC50 was < 0.008 µM.

Q: How did the EC50 [2] turn out when `COCCN(CCCOc1ccc(C2c3[nH]c4ccc(Cl)cc4c3CCN2C(=O)Oc2ccc(F)cc2)cc1)CCOC` (stereo not drawn) [Compound 990] was run?
A: Its EC50 is < 0.008 µM.

Q: How did the EC50 [2] turn out when `O=C(Oc1ccc(F)cc1)N1CCc2c([nH]c3ccc(Cl)cc23)C1c1ccc(OCCCN2CCSCC2)cc1` (stereo not drawn) [Compound 991] was run?
A: Its EC50 is 0.04 to 0.2 µM.
